Test results published in patent publication US8962613B2, “P2X4 receptor antagonist” (Nippon Chemiphar Co., Ltd., priority 2010, dated 2015).
Counter-ions that a name gives are not always drawn. Like-named read-outs stand apart in the source and are kept apart here.

Biological target: T1, human P2X4 receptors (Homo sapiens, UniProt Q99571)
T1 sequence (Q99571 1-388): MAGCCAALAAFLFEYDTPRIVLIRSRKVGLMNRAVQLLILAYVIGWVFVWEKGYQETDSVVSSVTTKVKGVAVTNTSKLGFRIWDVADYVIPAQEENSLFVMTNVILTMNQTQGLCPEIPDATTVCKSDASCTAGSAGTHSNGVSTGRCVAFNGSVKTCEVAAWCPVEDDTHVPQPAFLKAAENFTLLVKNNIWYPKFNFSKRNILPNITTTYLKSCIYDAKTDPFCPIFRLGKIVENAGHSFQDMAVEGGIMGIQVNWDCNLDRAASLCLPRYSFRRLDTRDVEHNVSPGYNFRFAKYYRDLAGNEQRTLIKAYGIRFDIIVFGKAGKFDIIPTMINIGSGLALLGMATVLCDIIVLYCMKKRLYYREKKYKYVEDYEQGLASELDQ
Test: P2X4 receptor antagonism, intracellular calcium influx assay (Fura-2 AM, ATP-induced)
Format: cell-based
Conditions: for IC50: 1321N1 cells stably expressing human P2X4 receptors, compound added 15 min before ATP, read-out: Inhibition activities (IC50 μM)
Method: 1321N1 cells stably expressing human P2X4 receptors were adopted for calcium influx assay. P2X4/1321N1 cells were plated in 96-well assay plate and cultured for 24 hours in an atmosphere of 5% CO2 at 37° C. Fura-2 AM calcium indicator dissolved in an extracellular solution for calcium imaging was loaded onto cells for 45 minutes at room temperature. The fluorescence was detected by FLUOstar OPTIMA micro plate reader (BMG labtech). The cells were alternatively illuminated with two excitations wavelengths (340 nm and 380 nm) via xenon lamp and the emitted fluorescence was measured at 510 nm. The fluorescence changes after the treatment of 1 μM ATP were monitored and determined the fluorescence ratio (F340/F380) as the index of intracellular calcium change. Tested compounds were treated to cells 15 min before the addition of ATP and the inhibition activities of compounds were calculated by comparing the Ca^2+ response with control in the absence of tested compound.
P2X4 receptor antagonism of the compound of the present invention was measured as described below.
1321N1 cells stably expressing human P2X4 receptors were plated in 96-well assay plate and cultured for 24 hours at 37° C. in an atmosphere of 5% CO2 for intracellular calcium assay. Fura-2 AM calcium fluorescent indicator was used for the intracellular calcium assay. Fura-2 AM was dissolved in an assay buffer, and the solution was loaded onto cells. The obtained plate was used for fluorescent assay.
Test compounds were treated to cells for 15 minutes before the addition of ATP, and the response to intracellular calcium influx induced by addition of ATP was monitored by a micro plate reader. The fluorescence ratio of excitations wavelengths of 340 nm and 380 nm was used as the index of intracellular calcium change. The inhibition activities of the test compounds were calculated by comparison with the absence of the test compound (control).

[1] = Table 19, fluorescence ratio F340/F380 vs control
[2] = Table 20, same manner as in Example 19

SMILES | IC50 [2] [µM] | other results
O=C1CC(=O)N(c2cccc(-c3nnn[nH]3)c2)c2ccc3c(c2N1)CCCC3.[Na] [Example 2, 5-[3-(1H-Tetrazol-5-yl)phenyl]-8,9,10,11-tetrahydronaphtho[2,1-b][1,4]diazepine-2,4(3H,5H)-dione sodium salt] |  | P2X4 receptor antagonism (in words) (summary statement on Tables 19 and 20): excellent P2X4 receptor antagonism
O=C1CC(=O)N(c2cccc(O)c2)c2ccc3c(c2N1)CCCC3 [Example 3, 5-(3-Hydroxyphenyl)-8,9,10,11-tetrahydronaphtho[2,1-b][1,4]diazepine-2,4(3H,5H)-dione] |  | IC50 [1]: 3.9 µM
O=C1CC(=O)N(c2cccc(-c3nnn[nH]3)c2)c2ccc3c(c2N1)CCC3 [Example 5, 5-[3-(1H-Tetrazol-5-yl)phenyl]-5,8,9,10-tetrahydroindeno[5,4-b][1,4]diazepine-2,4(1H,3H)-dione sodium salt] |  | IC50 [1]: 0.97 µM
Nc1cccc(N2C(=O)CC(=O)Nc3c2ccc2c3CCCC2)c1 [Example 8, 5-(3-Aminophenyl)-1,5,8,9,10,11-hexahydronaphtho[1,2-b][1,4]diazepine-2,4-dione hydrochloride] | 4 | 
Nc1ccc(N2C(=O)CC(=O)Nc3c2ccc2c3CCCC2)cc1 [Example 10, 5-(4-Aminophenyl)-1,5,8,9,10,11-hexahydronaphtho[1,2-b][1,4]diazepine-2,4-dione] | 6.1 | 
CNc1ccc(N2C(=O)CC(=O)Nc3c2ccc2c3CCCC2)cc1 [Example 11, 5-(4-Methylaminophenyl)-1,5,8,9,10,11-hexahydronaphtho[1,2-b][1,4]diazepine-2,4-dione hydrochloride] | 3.3 | 
COc1ccc(N2C(=O)CC(=O)Nc3c2ccc2c3CCCC2)cc1 [Example 13, 5-(4-Methoxyphenyl)-1,5,8,9,10,11-hexahydronaphtho[1,2-b][1,4]diazepine-2,4-dione] | 6.9 | 
O=C1CC(=O)N(c2ccc(O)cc2)c2ccc3c(c2N1)CCCC3 [Example 14, 5-(4-Hydroxyphenyl)-1,5,8,9,10,11-hexahydronaphtho[1,2-b][1,4]diazepine-2,4-dione] | 3.8 | 
